Laboratory results reported in US9708286B2, “Ingenol-3-acylates III and ingenol-3-carbamates” (LEO Laboratories Limited, priority 2010, dated 2017).
Read-outs that look alike come from different tables or passages of the source.

What was measured:
Type in all cases: cell-based
[1] = test system: PMN's (polymorphonuclear leukocytes); test: Neutrophil oxidative burst; settings: Leukocyte, 40 min, normalized to 5×10^−7 M PEP0005
Method: PMN's (polymorphonuclear leukocytes) were isolated and purified from fresh buffy coats by sequential sedimentation, density centrifugation and lysis of contaminating erythrocytes. Buffy coats were incubated with 2% methocel for 30-45 min to differentially sediment red blood cells. The leukocyte-rich supernatant was transferred to lymphoprep tubes to remove mononuclear cells by density centrifugation (400×g, 30 min). The pellet was resuspended and any remaining erythrocytes lysed using 0.2% NaCl for 30 sec before restoring isotonicity by the addition of 1.2% NaCl. This step was repeated until the cell pellet appears relatively free of red blood cells. Cells were resuspended in DPBS (Dulbecco's Phosphate Buffered Saline) (w.o. Ca^2+, Mg^2+) and the concentration adjusted to 1.4×10^6 cells/ml in HBSS (Hanks Balanced Salt solution) (w Ca^2+, Mg^2±) containing 0.1% BSA (Bovine Serum Albumin) and 5 mM glucose just prior to assay initiation. Titrated reference and test compounds were pre-mixed with HE (Hydroethidine) (10 μM final assay concentration) before addition to 96-well plates containing 2.5×10^5 cells. Following 40 min incubation at RT, changes in the respiratory burst was estimated by measuring fluorescence at 579 nm (excitation: 485 nm) using an Envision plate reader.
Test compound titration curves were fitted to a four-parameter sigmoidal curve after normalizing the effect of the test compound to the effect of the positive control (5×10^−7 M PEP0005). Rel EC50 denotes the concentration of test compound producing an effect that is midway between the fitted top and bottom. Abs EC50 is the concentration of test compound that provokes a response corresponding to 50% of the maximal effect associated with the positive control (5×10^−7 M PEP0005).

[2] = test system: HeLa cells; test: Necrosis assay; settings: Homo sapiens, 0.5 h, read-out: HeLa necrosis EC50 range
Method: HeLa cells (ATCC CCL-002) were grown in minimal essential medium (Invitrogen catalog no. 42360) containing 10% fetal bovine serum, 100 IU/ml penicillin and 100 μg/ml streptomycin. 4,000-6,000 cells were seeded into 96-well black ViewPlates-plates, clear bottom, (Perkin Elmer) in 100 μl medium and incubated overnight. Compounds were dissolved and pre-diluted in DMSO in 96-well polypropylene plates (Greiner) in a concentration range of 15 μM to 600 μM. At the time of the experiment cell plates were placed on heating blocks at 37° C., medium was removed and 40 μl fresh, pre-warmed medium was added per well. Cells were incubated for 15 min before addition of compounds. In parallel, 3 μl of compounds were diluted with 197 μl growth medium on a Tecan freedom-EVO pipetting station using 250 μl/s pipetting speed, in order to ensure effective mixing of the highly concentrated compound solutions with the aqueous phase. These pre-dilution plates were then equilibrated on heating blocks at 37° C. for 10 min. 80 μl pre-diluted compound were transferred manually to the corresponding wells containing HeLa cells yielding compound concentrations of 10 μM to 400 μM. Control conditions were 1% DMSO in growth medium (100% viability) and 400 μM ingenol mebutate in growth medium (0% viability). Plates were incubated on the heating blocks at 37° C. for 30 min. At the end of the incubation 10 μl PrestoBlue reagent (Invitrogen) were added to each well, plates were sealed with black seal, followed by incubation at 37° C. for 10 min with gentle shaking (150 rpm). Subsequently, plates were placed at room temperature for 20-30 min. Plates were read immediately after on an Envision Fluorescence reader (Perkin Elmer) with excitation at 535 nm and emission at 630 nm. Test compound titration curves were fitted to a four-parameter sigmoidal curve after normalizing the effect of the test compound to the effect of the positive control (4 10^−4 M PEP0005/ingenol mebutate). AbsEC50 denotes the concentration of test compound producing 50% effect.

[3] = test system: Primary human epidermal keratinocytes, HeKa; test: HeKa cytokine release (IL-8); settings: Homo sapiens, read-out: HeKa cytokine release (IL-8) Rel EC50 range
Method: Primary human epidermal keratinocytes, HeKa, were seeded (10.000 cells/well) in 96-well plates the day before the assay. Test compounds were diluted in DMSO (dimethyl sulfoxide) and further diluted in assay medium and pipetted into wells of 96 well-plates containing HeKa cells. The plates were incubated for 6 h at 37° C. in humidified air with 5% CO2. Plates were centrifuged briefly to spin down cells at 4° C., the supernatant was removed and analysed by Meso Scale Discovery (MSD) 4-spot cytokine assay (Pro-inflammatory II Ultra Sensitive kit, MSD, MD, USA). The MSD assay employs a sandwich immunoassay format where capture antibodies are coated in a patterned array on the bottom of the wells of a 4-Spot-Multi-MSD plate. Standard samples were incubated in the MULTI-SPOT plates as well, and the cytokine (IL-8) binds to its corresponding capture antibody spot. The cytokine level was quantitated on a SECTOR™ Imager using a cytokine-specific Detection Antibody labelled with MSD SULFO-TAG™ reagent.
Test compound titration curves were fitted to a four-parameter sigmoidal curve after normalizing the effect of the test compound to the effect of the positive control (1.5×10^−7 M PEP0005). Rel EC50 denotes the concentration of test compound producing an effect that is midway between the fitted top and bottom.

[4] = read-out: Neutrophil oxidative burst Rel EC50 range, PMN from buffy coats, 40 min at RT, hydroethidine fluorescence

SMILES | EC50 [1, 4] | EC50 ([2]; HeLa) | EC50 ([3]; HEKa, 6 h) | EC50 ([1]; PMN from buffy coats, 40 min at RT, hydroethidine fluorescence, read-out: Neutrophil oxidative burst Rel EC50 range) | EC50 ([2]; HeLa cells, 30 min at 37° C., PrestoBlue, AbsEC50, normalized to 400 μM ingenol mebutate) | EC50 ([3]; HeKa cells, 6 h at 37° C., IL-8 by MSD assay, normalized to 1.5×10^−7 M PEP0005)
CC1=C[C@]23C(=O)[C@@H](C=C(CO)[C@@H](O)[C@]2(O)[C@H]1OC(=O)c1ccnn1-c1ccccc1)[C@H]1[C@@H](C[C@H]3C)C1(C)C [Compound 505, Ingenol 3-(2-phenylpyrazole-3-carboxylate)] | < 20 nM | < 150000 nM | < 20 nM | – | – | –
CC1=C[C@]23C(=O)[C@@H](C=C(CO)[C@@H](O)[C@]2(O)[C@H]1OC(=O)c1nn(C)c2ccccc12)[C@H]1[C@@H](C[C@H]3C)C1(C)C [Compound 506, Ingenol 3-(1-methylindazole-3-carboxylate)] | < 20 nM | < 150000 nM | < 20 nM | – | – | –
CCc1noc(C)c1C(=O)O[C@H]1C(C)=C[C@]23C(=O)[C@@H](C=C(CO)[C@@H](O)[C@]12O)[C@H]1[C@@H](C[C@H]3C)C1(C)C [Compound 507, Ingenol 3-(3-ethyl-5-methyl-isoxazole-4-carboxylate)] | < 20 nM | 150000 to 350000 nM | < 20 nM | – | – | –
CC1=C[C@]23C(=O)[C@@H](C=C(CO)[C@@H](O)[C@]2(O)[C@H]1OC(=O)c1c(C)noc1C)[C@H]1[C@@H](C[C@H]3C)C1(C)C [Compound 508, Ingenol 3-(3-methyl-5-methyl-isoxazole-4-carboxylate)] | < 20 nM | 150000 to 350000 nM | < 20 nM | – | – | –
CC1=C[C@]23C(=O)[C@@H](C=C(CO)[C@@H](O)[C@]2(O)[C@H]1OC(=O)c1sccc1-c1ccccc1)[C@H]1[C@@H](C[C@H]3C)C1(C)C [Compound 510, Ingenol 3-(3-phenylthiophene-2-carboxylate)] | 20 to 100 nM | < 150000 nM | < 20 nM | – | – | –
CC1=C[C@]23C(=O)[C@@H](C=C(CO)[C@@H](O)[C@]2(O)[C@H]1OC(=O)c1cnnc2ccccc12)[C@H]1[C@@H](C[C@H]3C)C1(C)C [Compound 514, Ingenol 3-(cinnoline-4-carboxylate)] | > 100 nM | < 150000 nM | > 100 nM | – | – | –
CC1=C[C@]23C(=O)[C@@H](C=C(CO)[C@@H](O)[C@]2(O)[C@H]1OC(=O)c1ncoc1-c1ccccc1)[C@H]1[C@@H](C[C@H]3C)C1(C)C [Compound 516, Ingenol 3-(5-phenyloxazole-4-carboxylate)] | < 20 nM | < 150000 nM | 20 to 100 nM | – | – | –
CC1=C[C@]23C(=O)[C@@H](C=C(CO)[C@@H](O)[C@]2(O)[C@H]1OC(=O)c1noc2ccccc12)[C@H]1[C@@H](C[C@H]3C)C1(C)C [Compound 517, Ingenol 3-(1,2-benzoxazole-3-carboxylate)] | 20 to 100 nM | < 150000 nM | > 100 nM | – | – | –
CC1=C[C@]23C(=O)[C@@H](C=C(CO)[C@@H](O)[C@]2(O)[C@H]1OC(=O)c1c(C(C)C)noc1C)[C@H]1[C@@H](C[C@H]3C)C1(C)C [Compound 518, Ingenol 3-(3-isopropyl-5-methyl-isoxazole-4-carboxylate)] | < 20 nM | < 150000 nM | < 20 nM | – | – | –
COc1ccccc1-c1noc(C)c1C(=O)O[C@H]1C(C)=C[C@]23C(=O)[C@@H](C=C(CO)[C@@H](O)[C@]12O)[C@H]1[C@@H](C[C@H]3C)C1(C)C [Compound 519, Ingenol 3-(3-(2-methoxyphenyl)-5-methyl-isoxazole-4-carboxylate)] | < 20 nM | < 150000 nM | < 20 nM | – | – | –
CC1=C[C@]23C(=O)[C@@H](C=C(CO)[C@@H](O)[C@]2(O)[C@H]1OC(=O)c1c(Cl)cnn1C)[C@H]1[C@@H](C[C@H]3C)C1(C)C [Compound 522, Ingenol 3-(4-chloro-2-methyl-pyrazole-3-carboxylate)] | < 20 nM | 150000 to 350000 nM | < 20 nM | – | – | –
CC1=C[C@]23C(=O)[C@@H](C=C(CO)[C@@H](O)[C@]2(O)[C@H]1OC(=O)c1ncncc1Br)[C@H]1[C@@H](C[C@H]3C)C1(C)C [Compound 523, Ingenol 3-(5-bromopyrimidine-4-carboxylate)] | 20 to 100 nM | > 350000 nM | > 100 nM | – | – | –
CC1=C[C@]23C(=O)[C@@H](C=C(CO)[C@@H](O)[C@]2(O)[C@H]1OC(=O)c1ncsc1C)[C@H]1[C@@H](C[C@H]3C)C1(C)C [Compound 525, Ingenol 3-(5-methylthiazole-4-carboxylate)] | 20 to 100 nM | > 350000 nM | > 100 nM | – | – | –
CC1=C[C@]23C(=O)[C@@H](C=C(CO)[C@@H](O)[C@]2(O)[C@H]1OC(=O)c1nn(C)cc1Cl)[C@H]1[C@@H](C[C@H]3C)C1(C)C [Compound 526, Ingenol 3-(4-chloro-1-methyl-pyrazole-3-carboxylate)] | 20 to 100 nM | > 350000 nM | > 100 nM | – | – | –
CC1=C[C@]23C(=O)[C@@H](C=C(CO)[C@@H](O)[C@]2(O)[C@H]1OC(=O)c1sc(C)nc1C)[C@H]1[C@@H](C[C@H]3C)C1(C)C [Compound 527, Ingenol 3-(2,4-dimethylthiazole-5-carboxylate)] | < 20 nM | 150000 to 350000 nM | 20 to 100 nM | – | – | –
CC1=C[C@]23C(=O)[C@@H](C=C(CO)[C@@H](O)[C@]2(O)[C@H]1OC(=O)c1nc(C)oc1C)[C@H]1[C@@H](C[C@H]3C)C1(C)C [Compound 528, Ingenol 3-(2,5-dimethyloxazole-4-carboxylate)] | 20 to 100 nM | > 350000 nM | > 100 nM | – | – | –
CC1=C[C@]23C(=O)[C@@H](C=C(CO)[C@@H](O)[C@]2(O)[C@H]1OC(=O)c1c(C)coc1C)[C@H]1[C@@H](C[C@H]3C)C1(C)C [Compound 529, Ingenol 3-(2,4-dimethylfuran-3-carboxylate)] | < 20 nM | < 150000 nM | < 20 nM | – | – | –
CCc1noc(CC)c1C(=O)O[C@H]1C(C)=C[C@]23C(=O)[C@@H](C=C(CO)[C@@H](O)[C@]12O)[C@H]1[C@@H](C[C@H]3C)C1(C)C [Compound 530, Ingenol 3-(3,5-diethylisoxazole-4-carboxylate)] | – | – | – | < 20 nM | < 150000 nM | < 20 nM
